Source: US20260217677A1, “ORGANIC COMPOUNDS AS NLRP3 INHIBITORS” (KODIAK SCIENCES, INC., priority 2023, published 2026)

System: IL-1β release in U937 cells after NLRP3 activation
Assay: IL-1β release inhibition in U937 cells (MSD V-Plex)
Details: Homo sapiens, U-937, read-out: IL-1β IC50, Table 3; PMA-differentiated U937 cells, 1 μg/mL LPS 3 h, compound 30 min, 10 mM nigericin 1 h

Row | Structure (SMILES) | IC50
1 | CN1Cc2c(N[C@@H]3CCCN(CC(=O)N4CCC(O)CC4)C3)nnc(-c3ccc(C(F)(F)F)cc3O)c2C1 [Example 60, (R)-2-(3-((4-(2-Hydroxy-4-(trifluoromethyl)phenyl)-6-methyl-6,7-dihydro-5H-pyrrolo[3,4-d]pyridazin-1-yl)amino)piperidin-1-yl)-1-(4-hydroxypiperidin-1-yl)ethan-1-one] | 50 to 500 nM
2 | O=C(CN1CCC[C@@H](Nc2nnc(-c3ccc(C(F)(F)F)cc3O)c3c2COC3)C1)N1CC[C@H](O)C1 [Compound 26, 2-((R)-3-((4-(2-Hydroxy-4-(trifluoromethyl)phenyl)-5,7-dihydrofuro[3,4-d]pyridazin-1-yl)amino)piperidin-1-yl)-1-((S)-3-hydroxypyrrolidin-1-yl)ethan-1-one] | 5 to 50 nM
3 | Cc1cc(N[C@@H]2CCCN(CC(=O)N3CC4(CC(O)C4)C3)C2)nnc1-c1ccc(C(F)(F)F)cc1O [Compound 16, (R)-2-(3-((6-(2-Hydroxy-4-(trifluoromethyl)phenyl)-5-methylpyridazin-3-yl)amino)piperidin-1-yl)-1-(6-hydroxy-2-azaspiro[3.3]heptan-2-yl)ethan-1-one] | 5 to 50 nM
4 | Cc1cc(N[C@@H]2CCCN(CCN3CC(O)C(F)C3)C2)nnc1-c1ccc(C(F)(F)F)cc1O (stereo partly drawn) [Compound 5, 4-Fluoro-1-(2-((R)-3-((6-(2-hydroxy-4-(trifluoromethyl)phenyl)-5-methylpyridazin-3-yl)amino)piperidin-1-yl)ethyl)pyrrolidin-3-ol] | < 5 nM
5 | Cc1cc(N[C@@H]2CCCN(CC(=O)N3CCC(O)CC3)C2)nnc1-c1ccc(C(F)(F)F)cc1O [Compound 9, 2-[(3R)-3-({6-[2-Hydroxy-4-(trifluoromethyl)phenyl]-5-methylpyridazin-3-yl}amino)piperidin-1-yl]-1-(4-hydroxypiperidin-1-yl)ethanone] | 5 to 50 nM
6 | Cc1cc(N[C@@H]2CCCN(C(=O)C34CC(O)(C3)C4)C2)nnc1-c1ccc(C(F)(F)F)cc1O [Example 63, (R)-(3-((6-(2-Hydroxy-4-(trifluoromethyl)phenyl)-5-methylpyridazin-3-yl)amino)piperidin-1-yl) (3-hydroxybicyclo[1.1.1]pentan-1-yl)methanone] | 5 to 50 nM
7 | Cc1cc(N[C@@H]2CCCN(CC(=O)N3CC(O)C3)C2)nnc1-c1ccc(C(F)(F)F)cc1O [Compound 8, (R)-2-(3-((6-(2-Hydroxy-4-(trifluoromethyl)phenyl)-5-methylpyridazin-3-yl)amino)piperidin-1-yl)-1-(3-hydroxyazetidin-1-yl)ethan-1-one] | 5 to 50 nM
8 | Cc1c(N[C@@H]2CCCN(CCOC(=O)N3CCC(O)CC3)C2)nnc(-c2ccc(C(F)(F)F)cc2O)c1C [Example 75, (R)-2-(3-((6-(2-Hydroxy-4-(trifluoromethyl)phenyl)-4,5-dimethylpyridazin-3-yl)amino)piperidin-1-yl)ethyl 4-hydroxypiperidine-1-carboxylate] | < 5 nM

Further lines, results first:

Row | IC50 | Structure (SMILES)
9 | 5 to 50 nM | Cc1cc(N[C@@H]2CCCN(CCN3CC(O)C3)C2)nnc1-c1ccc(C(F)(F)F)cc1O [Example 37, (R)-1-(2-(3-((6-(2-Hydroxy-4-(trifluoromethyl)phenyl)-5-methylpyridazin-3-yl)amino)piperidin-1-yl)ethyl)azetidin-3-ol]
10 | > 500 nM | Cc1cc(N[C@@H]2CCCN(CCN3CC[C@H](O)C3)C2)nnc1-c1ccc(C(F)(F)F)cc1O [Compound 4, (S)-1-(2-((R)-3-((6-(2-Hydroxy-4-(trifluoromethyl)phenyl)-5-methylpyridazin-3-yl)amino)piperidin-1-yl)ethyl)pyrrolidin-3-ol]
11 | < 5 nM | Cc1cc(N[C@@H]2CCCN(CC3CC4(CC(O)C4)C3)C2)nnc1-c1ccc(C(F)(F)F)cc1O (stereo partly drawn) [Example 62, (R)-6-((3-((6-(2-Hydroxy-4-(trifluoromethyl)phenyl)-5-methylpyridazin-3-yl)amino)piperidin-1-yl)methyl)spiro[3.3]heptan-2-ol]
12 | 5 to 50 nM | Cc1cc(N[C@@H]2CCCN(CC(=O)N3CCC(O)C3)C2)nnc1-c1ccc(C(F)(F)F)cc1O (stereo partly drawn) [Compound 1, 2-((R)-3-((6-(2-Hydroxy-4-(trifluoromethyl)phenyl)-5-methylpyridazin-3-yl)amino)piperidin-1-yl)-1-(3-hydroxypyrrolidin-1-yl)ethan-1-one]

Same assay, conditions: Homo sapiens, U-937, read-out: IL-1β IC50, Table 4; PMA-differentiated U937 cells, 1 μg/mL LPS 3 h, compound 30 min, 10 mM nigericin 1 h

Row | Structure (SMILES) | IC50
13 | Cc1cc(N[C@@H]2CCCN(C3CC(N)C3)C2)nnc1-c1ccc(C(F)(F)F)cc1O (stereo partly drawn) [Example 89, (R)-2-(6-((1-(3-Aminocyclobutyl)piperidin-3-yl)amino)-4-methylpyridazin-3-yl)-5-(trifluoromethyl)phenol] | 5 to 50 nM
14 | Cc1cc(N[C@@H]2CCCN(C3CC(N)C3)C2)nnc1-c1ccc(C(F)(F)F)cc1O (stereo in doubt) [Example 91, 2-(6-(((R)-1-((1s*,3S*)-3-aminocyclobutyl)piperidin-3-yl)amino)-4-methylpyridazin-3-yl)-5-(trifluoromethyl)phenol] | 5 to 50 nM
15 | Cc1cc(N[C@@H]2CCCN(C3CCN(C(=O)N4CCNCC4)CC3)C2)nnc1-c1ccc(C(F)(F)F)cc1O [Example 86, (R)-(3-((6-(2-hydroxy-4-(trifluoromethyl)phenyl)-5-methylpyridazin-3-yl)amino)-[1,4′-bipiperidin]-1′-yl) (piperazin-1-yl)methanone] | 5 to 50 nM
16 | Cc1cc(N[C@@H]2CCCN(CC(F)(F)CN)C2)nnc1-c1ccc(C(F)(F)F)cc1O [Example 97, (R)-2-(6-((1-(3-Amino-2,2-difluoropropyl)piperidin-3-yl)amino)-4-methylpyridazin-3-yl)-5-(trifluoromethyl)phenol] | 5 to 50 nM

Further lines, results first:

Row | IC50 | Structure (SMILES)
17 | 5 to 50 nM | Cc1cc(N[C@@H]2CCCN(C3CNC3)C2)nnc1-c1ccc(C(F)(F)F)cc1O [Example 84, (R)-2-(6-((1-(Azetidin-3-yl)piperidin-3-yl)amino)-4-methylpyridazin-3-yl)-5-(trifluoromethyl)phenol]
18 | 5 to 50 nM | Cc1cc(N[C@@H]2CCCN(C[C@H]3CCCN3)C2)nnc1-c1ccc(C(F)(F)F)cc1O [Example 107, 2-(4-Methyl-6-(((R)-1-(((R)-pyrrolidin-2-yl)methyl)piperidin-3-yl)amino)pyridazin-3-yl)-5-(trifluoromethyl)phenol]
19 | < 5 nM | Cc1cc(N[C@@H]2CCCN(CCN)C2)nnc1-c1ccc(C(F)(F)F)cc1O [Example 78, (R)-2-(6-((1-(2-Aminoethyl)piperidin-3-yl)amino)-4-methylpyridazin-3-yl)-5-(trifluoromethyl)phenol]
20 | 5 to 50 nM | Cc1cc(N[C@@H]2CCCN(CCN3CCNCC3)C2)nnc1-c1ccc(C(F)(F)F)cc1O [Example 104, (R)-2-(4-Methyl-6-((1-(2-(piperazin-1-yl)ethyl)piperidin-3-yl)amino)pyridazin-3-yl)-5-(trifluoromethyl)phenol]

Same assay, conditions: read-out: IL-1β IC50; Table 3; PMA-differentiated U937 cells, 1 μg/mL LPS 3 h, compound 30 min, 10 mM nigericin 1 h

Row | IC50 | Structure (SMILES)
21 | 5 to 50 nM | Cc1cc(N[C@@H]2CCCN(CC(=O)N(C)[C@H]3CC[C@H](O)CC3)C2)nnc1-c1ccc(C(F)(F)F)cc1O [Compound 18, 2-((R)-3-((6-(2-Hydroxy-4-(trifluoromethyl)phenyl)-5-methylpyridazin-3-yl)amino)piperidin-1-yl)-N-((1r,4R)-4-hydroxycyclohexyl)-N-methylacetamide]
22 | 5 to 50 nM | Cc1cc(N[C@@H]2CCCN(C3CCN(C4CC(O)C4)CC3)C2)nnc1-c1ccc(C(F)(F)F)cc1O (single isomer, unassigned) [Example 38B]
